Reference: patent US8492341B2, “Amyloid-β binding peptides” (Alzyme Pty Ltd., priority 2006, dated 2013)

Experiments:
human Aβ1-42 = human Aβ1-42 (Homo sapiens, UniProt P05067); assay: DCF fluorescence assay of H2O2 production (SOD-like activity) by human Aβ1-42; format: biochemical; conditions: P<0.001
Experimental: The three candidate peptides (15merTNP, 6merPLP and 6merMTM) were examined to determine whether they could attenuate Aβ's SOD-like activity in vitro. A DCF fluorescence assay was used to assess the efficacy of these peptides on altering the production of physiological (brain) concentrations (200 nM) of human Aβ1-42.
Aβ species were prepared and the assay run as described previously (i.e. Aβ1-42 at 200 nM and Copper and Dopamine concentrations remain unchanged). Peptide analogue MP2 (SEQ ID NO:2) was added to Aβ1-42+Cu solutions at ratios ranging from 0.005:1 to 10.0:1 (i.e. a ration of 0.005:1 would contain 1 nM of respective peptide). The peptide was dissolved in PBS pH7.5. The effect of MP2 on H2O2 production by human Aβ1-42 was determined in triplicate in three separate experiments (i.e. n=9) for doses ranging from 100 to 2000 nM (FIG. 1). These were compared against the level of H2O2 produced by human Aβ1-42 [test peptide analogue MP2+positive control peptide 15merTNP; three experiments done in triplicate, […]]. All data are presented as means±SEM.
For all assays run, the 15merTNP peptide (SEQ ID NO: 3), was included as a positive control for the assay and for comparing its activity with that of the modelled peptide analogue MP2. The effect of 15merTNP (200 nM) on H2O2 production by human Aβ1-42, was determined in triplicate in each of the 12 DCF assays (i.e. n=36) performed in this study.

Aβ = Aβ (Homo sapiens, UniProt P05067); assay: Copper-induced Aβ oligomer generation (SDS-PAGE, WO2 immunoblot); format: biochemical; conditions: Aβ 5 uM, Cu+2 25 μM, 0-1000 μM peptide, 37 C, 24 hours; vs reverse peptide control
Experimental: Incubation of Aβ with copper generates cross-linked oligomeric species (Atwood et al., 2000: Cell Mol Biol, 46: 777-783; Atwood et al., 2004: Biochemistry, 43: 560-568). In this experiment, Aβ (5 uM) is incubated with Cu+2 (25 μM) and 0-1000 μM of the modified peptides at 37 C for 24 hours. After the incubation period, 20 ng is loaded onto an SDS-PAGE gel and immunoblotted with WO2 antibody. Compared to the reverse peptide control, all the modified peptides inhibited the generation of Aβ oligomers at various concentration.

PS/APP transgenic mice = assay: Efficacy study: i.c.v. infusion in PS/APP transgenic mice, Aβ and GFAP immunohistochemistry; format: in vivo; conditions: 6-month-old PS/APP mice, 28 days, vs Vehicle (PBS)
Excerpt: Peptide analogue MP2 [Ac-Asn-Arg-Thr-Pro-Gln-Met-Leu-Lys-Arg-NH2 (SEQ ID NO:2)] was delivered directly into the brain by i.c.v administration. For i.c.v infusion into the cerebrospinal fluid, a cannula is inserted into the right lateral ventricle of the brain (antero-posterior: −0.3 mm; medium-line: −1 mm; dorso-ventral: −2.2 mm) of 3-month and 6-month old PS/APP transgenic mice using a Kopf (Tujunga, Calif.) stereotaxic instrument (Permanne et al., 2002 “Reduction of amyloid load and cerebral damage in a transgenic mouse model of Alzheimer's disease by treatment with a β-sheet breaker peptide” FASEB J.).
The coordinates are measured from the Bregma and the surface of the skull according to the brain atlas of Franklin and Paxinos (The Mouse Brain in Stereotaxic Coordinates (1997) Academic Press, San Diego). […]
For immunohistochemistry, tissue sections are cut and series of sections processed for peroxidase immunohistochemistry with antibodies specific for beta amyloid (1-42) and astrocytic activation (GFAP). […] Reactive astrocytes (forming a halo around Aβ deposits) were detected using antibody GFAP (1:500 dilution in DAKO antibody diluent; polyclonal, DAKO); Aβ detected using affinity purified WO2 antibody (1:10,000 dilution in Tris buffer (pH 7.6); raised against amino acid residues 5-8 of human Aβ, monoclonal). […]

Chain of human Aβ1-42 (P05067 672-713): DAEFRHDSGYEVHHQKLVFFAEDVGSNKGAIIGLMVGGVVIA
Chain of Aβ (P05067 672-713 limits assumed): as the sequence (P05067 672-713) above

## Ac-NRTPQMLKR-NH2 [MP2, Ac-Asn-Arg-Thr-Pro-Gln-Met-Leu-Lys-Arg-NH2]
Human Aβ1-42; 100 and 200 nM peptide
  H2O2 levels produced by human Aβ1-42: significant reduction
Human Aβ1-42; peptide doses ≧1000 nM
  H2O2 levels produced by human Aβ1-42: significantly increased
Aβ
  inhibition of Aβ oligomer formation: most potent
PS/APP transgenic mice; 60 nmoles daily i.c.v.
  reduction in the estimated total number of Aβ immunoreactive deposits: 26.4%
PS/APP transgenic mice; 60 nmoles/day i.c.v.
  total number of GFAP immunoreactive halos: reduction in the total number of GFAP immunoreactive halos, although significance was only reached in the middle and posterior cortical regions
